Test results published in article PMC8222254, “Self-assembly of an anion receptor with metal-dependent kinase inhibition and potent in vitro anti-cancer properties” (Nature Communications, 2021).
“And” between values parts separate entries of the source, which are not always exact repeats. Equal values may be shown once. Read-outs that look alike come from different tables or passages of the source.

How the values were obtained:
Format in all cases: cell-based, human
PSN1 = test: Chemosensitivity, 96 h continuous exposure, MTT assay; conditions: for Selectivity index (ARPE19): IC50 ARPE-19 / IC50 PSN1; for Selectivity index (MCF10A): IC50 MCF10A / IC50 PSN1; for Relative potency (+ anion to no anion), Ratio + anion:no anion: ratio of IC50, PSN1; for Selectivity indices relative to ARPE-19, Ratio + anion:no anion: ratio of SI (ARPE-19); for Selectivity indices relative to MCF10A, Ratio + anion:no anion: ratio of SI (MCF 10A);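 for SI (NPI): adult human brain neural progenitor non-cancer cells from an epilepsy surgery patient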;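 for Selectivity Index using the NPI non-cancer cell line: adult human brain neural progenitor non-cancer cells from an epilepsy surgery patient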
How it was run: (§1)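 Growth inhibition is measured by MTT after cells are dosed for 96 h without washout. The 50% growth-reduction concentration is then interpolated from the curves.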

HT-29 = test: as above; conditions: for Selectivity index (ARPE19): IC50 ARPE-19 / IC50 HT29; for Selectivity index (MCF10A): IC50 MCF10A / IC50 HT29; for Relative potency (+ anion to no anion), Ratio + anion:no anion: ratio of IC50, HT29; for Selectivity indices relative to ARPE-19, Ratio + anion:no anion: ratio of SI (ARPE-19); for Selectivity indices relative to MCF10A, Ratio + anion:no anion: ratio of SI (MCF 10A);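 for SI (NPI): adult human brain neural progenitor non-cancer cells from an epilepsy surgery patient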;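 for Selectivity Index using the NPI non-cancer cell line: adult human brain neural progenitor non-cancer cells from an epilepsy surgery patient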
How it was run: (§2)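 Cells were seeded overnight at 37 °C (2 × 10^3/well; GBM1 at 3 × 10^3/well on poly-L-ornithine/laminin in Neurobasal with hFGF/rhEGF), then exposed to compound concentration ranges for 96 h. Viability was read by MTT (4 h, formazan in DMSO, A540) and IC50 taken from dose–response curves.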

ARPE-19 non-cancer cells = test: as above; conditions: for Relative potency (+ anion to no anion), Ratio + anion:no anion: ratio of IC50, ARPE-19
How it was run: as §2

H460 = test: as above; conditions: for Selectivity index (ARPE19): IC50 ARPE-19 / IC50 H460; for Selectivity index (MCF10A): IC50 MCF10A / IC50 H460; for Relative potency (+ anion to no anion), Ratio + anion:no anion: ratio of IC50, H460; for Selectivity indices relative to ARPE-19, Ratio + anion:no anion: ratio of SI (ARPE-19); for Selectivity indices relative to MCF10A, Ratio + anion:no anion: ratio of SI (MCF 10A)
How it was run: as §1

HCT116 p53-/- = test: Confocal imaging of autophagic cells (CYTO-ID); conditions: 3.125 µM, 40 h
Experimental: Cells were seeded in Lumox chamber slides (8-well, Sarstedt) at a density of 1.25 × 10^4 cells/well (ARPE-19) or 5.625 × 10^4 cells/well (HCT116 p53^−/− and HCT116 p53^+/+). 24 h after seeding, cells were treated with 3.125 μM of [L2Cu3]^6+, [L2Zn3]^6+, [L2Mn3]^6+, or vehicle control for 40 h before removal and addition of CYTO-ID Green autophagic dye (1:500 dilution, Enzo Life Sciences) and Hoechst 3342 nuclear counter stain for 30 min at 37 °C. Media was then replaced before imaging using a Zeiss LSM880 confocal laser scanning microscope.

[1] = PSN1, mean of replicates, read-out: Mean IC50
[2] = PSN1, read-out: Mean IC50 values
[3] = HT29, mean of replicates, read-out: Mean IC50
[4] = HT29, read-out: Mean IC50 values
[5] = ARPE-19, 96 h, MTT, individual run, read-out: IC50 values for each replicate
[6] = ARPE-19, 96 h, MTT, mean of at least 3 independent experiments, read-out: Mean IC50
[7] = ARPE-19, mean of replicates, read-out: Mean IC50
[8] = ARPE-19 non-cancer, read-out: Mean IC50 values
[9] = H460, mean of replicates, read-out: Mean IC50
[10] = H460, read-out: Mean IC50 values

[Cu+2].[Cu+2].[Cu+2].c1ccc(-c2csc(NCCN(CCNc3nc(-c4ccccn4)cs3)CCNc3nc(-c4ccccn4)cs3)n2)nc1.c1ccc(-c2csc(NCCN(CCNc3nc(-c4ccccn4)cs3)CCNc3nc(-c4ccccn4)cs3)n2)nc1 [[L2Cu3]6+]
Selectivity index (ARPE19) (PSN1): 8.16 | Selectivity index (MCF10A) (PSN1): 7.48 | Selectivity Index using the NPI non-cancer cell line (PSN1; IC50 NP1 / IC50 PSN1): 6.68 | IC50 (PSN1; PSN1, 96 h, MTT, individual run, read-out: IC50 values for each replicate): 6270 nM and 6080 nM and 7010 nM | IC50 (PSN1; PSN1, 96 h, MTT, mean of at least 3 independent experiments, listed as [L2Cu3]^6+, read-out: Mean IC50): > 1000 nM | IC50 (PSN1; PSN1, 96 h, MTT, mean of at least 3 independent experiments, read-out: Mean IC50): 6450 nM | IC50 (PSN1; [1]): 6450 nM | IC50 (PSN1; [2]): 6450 nM | SI (ARPE19) (PSN1; mean IC50 ARPE-19 / mean IC50 PSN1): 8.16 | SI (MCF10A) (PSN1; mean IC50 MCF10A / mean IC50 PSN1): 7.48 | SI (NPI) (PSN1; mean IC50 NP1 / mean IC50 PSN1): 6.68 | Relative potency (+ anion to no anion), Ratio + anion:no anion (PSN1): 1 | Selectivity indices relative to ARPE-19, Ratio + anion:no anion (PSN1; PSN1): 1 | Selectivity indices relative to MCF10A, Ratio + anion:no anion (PSN1; PSN1): 1 | IC50 (HT-29; [3]): 213 nM | IC50 (HT-29; [4]): 214 nM | IC50 (HT-29; HT-29, 96 h, MTT, individual run, read-out: IC50 values for each replicate): 184 nM and 210 nM and 273 nM and 226 nM and 174 nM | IC50 (HT-29; HT-29, 96 h, MTT, mean of at least 3 independent experiments, read-out: Mean IC50): 214 nM | Selectivity index (ARPE19) (HT-29): 245.93 | Selectivity index (MCF10A) (HT-29): 225.51 | Selectivity Index using the NPI non-cancer cell line (HT-29; IC50 NP1 / IC50 HT29): 201.36 | SI (ARPE19) (HT-29; mean IC50 ARPE-19 / mean IC50 HT-29): 245.93 | SI (MCF10A) (HT-29; mean IC50 MCF10A / mean IC50 HT-29): 225.51 | SI (NPI) (HT-29; mean IC50 NP1 / mean IC50 HT-29): 201.36 | Relative potency (+ anion to no anion), Ratio + anion:no anion (HT-29): 1 | Selectivity indices relative to ARPE-19, Ratio + anion:no anion (HT-29; HT29): 1 | Selectivity indices relative to MCF10A, Ratio + anion:no anion (HT-29; HT29): 1 | IC50 (ARPE-19 non-cancer cells; [5]): 49100 nM and 43800 nM and 57700 nM and 66200 nM and 46400 nM | IC50 (ARPE-19 non-cancer cells; [6]): 52600 nM | IC50 (ARPE-19 non-cancer cells; [7]): 52600 nM | IC50 (ARPE-19 non-cancer cells; [8]): 52600 nM | Relative potency (+ anion to no anion), Ratio + anion:no anion (ARPE-19 non-cancer cells): 1 | IC50 (H460; H460, 96 h, MTT, individual run, read-out: IC50 values for each replicate): 257 nM and 234 nM and 451 nM and 164 nM | IC50 (H460; H460, 96 h, MTT, mean of at least 3 independent experiments, read-out: Mean IC50): 276 nM | IC50 (H460; [9]): 276 nM | IC50 (H460; [10]): 276 nM | Selectivity index (ARPE19) (H460): 190.69 | Selectivity index (MCF10A) (H460): 174.86 | Selectivity Index using the NPI non-cancer cell line (H460; IC50 NP1 / IC50 H460): 156.12 | SI (ARPE19) (H460; mean IC50 ARPE-19 / mean IC50 H460): 190.69 | SI (MCF10A) (H460; mean IC50 MCF10A / mean IC50 H460): 174.86 | SI (NPI) (H460; mean IC50 NP1 / mean IC50 H460): 156.12 | Relative potency (+ anion to no anion), Ratio + anion:no anion (H460): 1 | Selectivity indices relative to ARPE-19, Ratio + anion:no anion (H460; H460): 1 | Selectivity indices relative to MCF10A, Ratio + anion:no anion (H460; H460): 1 | induction of vacuoles / autophagy (CYTO-ID) (HCT116 p53-/-): no or little autophagy | induction of vacuoles / autophagy (CYTO-ID) (HCT116 p53-/-; listed as [L2Cu3]^6+): did not

[Mn+2].[Mn+2].[Mn+2].c1ccc(-c2csc(NCCN(CCNc3nc(-c4ccccn4)cs3)CCNc3nc(-c4ccccn4)cs3)n2)nc1.c1ccc(-c2csc(NCCN(CCNc3nc(-c4ccccn4)cs3)CCNc3nc(-c4ccccn4)cs3)n2)nc1 [[L2Mn3]6+]
IC50 (ARPE-19 non-cancer cells; [5]): 5140 nM and 2100 nM and 2120 nM and 2080 nM | IC50 (ARPE-19 non-cancer cells; [6]): 2860 nM | IC50 (ARPE-19 non-cancer cells; [8]): 2860 nM | induction of vacuoles / autophagy (CYTO-ID) (HCT116 p53-/-): most pronounced | induction of vacuoles / autophagy (CYTO-ID) (HCT116 p53-/-; listed as Mn^2+ complex): also induced autophagy

O=S(=O)(O)O.[Zn+2].[Zn+2].[Zn+2].c1ccc(-c2csc(NCCN(CCNc3nc(-c4ccccn4)cs3)CCNc3nc(-c4ccccn4)cs3)n2)nc1.c1ccc(-c2csc(NCCN(CCNc3nc(-c4ccccn4)cs3)CCNc3nc(-c4ccccn4)cs3)n2)nc1 [[L2Zn3(SO4)]4+]
Selectivity index (ARPE19) (PSN1): 748.98 | Selectivity index (MCF10A) (PSN1): 67.38 | IC50 (PSN1; [1]): 226 nM | IC50 (PSN1; [2]): 226 nM | IC50 (PSN1; PSN1, single replicate, read-out: IC50 values for each replicate): 217 nM and 199 nM and 261 nM | activity relative to [L2Zn3(PO4)]3+ or [L2Zn3]6+ (PSN1; PSN1 cell line, anion pre-encapsulated): significantly more active | Relative potency (+ anion to no anion), Ratio + anion:no anion (PSN1): 0.05 | Selectivity indices relative to ARPE-19, Ratio + anion:no anion (PSN1; PSN1): 21.164 | Selectivity indices relative to MCF10A, Ratio + anion:no anion (PSN1; PSN1): 1.852 | IC50 (HT-29; [3]): 238 nM | IC50 (HT-29; [4]): 238 nM | IC50 (HT-29; HT-29, single replicate, read-out: IC50 values for each replicate): 70 nM and 166 nM and 210 nM and 243 nM and 499 nM | Selectivity index (ARPE19) (HT-29): 711.22 | Selectivity index (MCF10A) (HT-29): 63.98 | Relative potency (+ anion to no anion), Ratio + anion:no anion (HT-29): 1.41 | Selectivity indices relative to ARPE-19, Ratio + anion:no anion (HT-29; HT29): 0.764 | Selectivity indices relative to MCF10A, Ratio + anion:no anion (HT-29; HT29): 0.067 | IC50 (ARPE-19 non-cancer cells; [7]): 169000 nM | IC50 (ARPE-19 non-cancer cells; ARPE-19, single replicate, read-out: IC50 values for each replicate): 182000 nM and 150000 nM and 176000 nM | IC50 (ARPE-19 non-cancer cells; [8]): 169000 nM | Relative potency (+ anion to no anion), Ratio + anion:no anion (ARPE-19 non-cancer cells): 1.08 | IC50 (H460; [9]): 233 nM | IC50 (H460; [10]): 233 nM | IC50 (H460; H460, single replicate, read-out: IC50 values for each replicate): 189 nM and 262 nM and 250 nM | Selectivity index (ARPE19) (H460): 726.48 | Selectivity index (MCF10A) (H460): 65.36 | Relative potency (+ anion to no anion), Ratio + anion:no anion (H460): 0.65 | Selectivity indices relative to ARPE-19, Ratio + anion:no anion (H460; H460): 1.663 | Selectivity indices relative to MCF10A, Ratio + anion:no anion (H460; H460): 1.128
